One assay deals with mouse. Description: Tail clip test (analgesic effect). Format: in vivo. To be noted: 100 mpk, intragastric. As to the method: The assessment of the analgesic effect of the present compounds was conducted in the tail clip test.
A specific clip is applied to the base of the tail of the mouse (adult male weighing 18-25 grams) and the time for the animal to turn around to bite at it is measured. The sensitivity of each mouse is determined one-half hour prior to drug administration. Only those mice attempting to bite the clip are included in the experiment. The test compound is then administered intragastrically and the response to placement of the clip is determined at 30, 60, 90 and 120 minutes after treatment. A response is considered positive if the animal takes more than 2 times the pre-drug time to bite at the clip at any of these time intervals. A test compound is considered active when 50 percent or more of the animals used show a positive response.

The subject of assay [1] is castor oil induced diarrhea. Description: Castor oil induced diarrhea in the rat. Format: in vivo, Charles River male rats. Particulars: for ED50: Rattus norvegicus, po, 1 hour before castor oil; for Potency: relative to diphenoxylate hydrochloride. As to the method:
Adult Charles River male rats were fasted in community cages for 24 hours prior to the test, with free access to water. The compound was administered intragastrically (suspended on 0.5% methycellulose) one hour prior to the administration of castor oil at the dose of 1.0 ml/rat intragastrically. The rats were then observed for the presence or absence of diarrhea, at hourly intervals for up to 8 hours past administration of castor oil. The median effective dose values at each hourly interval were calculated for the compound using the method of Berkson (1953). […] For example:
Comparative Oral Antidiarrheal Potency and Duration of 4-aminomethyl-1-1-(3,3,3-triphenylpropyl)-4-phenylpiperidine hydrochloride (Compound A) to Diphenoxylate hydrochloride in Rat Castor Oil Diarrhea Test.

Usually ED50 stands for the dose at which the effect has come halfway, by size or by number of responders. A high value points to weaker potency. Turning to `Cl.NCC1(c2ccccc2)CCN(CCC(c2ccccc2)(c2ccccc2)c2ccccc2)CC1` [Compound A, 4-aminomethyl-1-(3,3,3-triphenylpropyl)-4-phenylpiperidine hydrochloride], the analgesic effect result in the assay on mouse was “weak analgesic effect”. Moreover, the 50% effective dose (ED50) in assay [1] (2 hours after castor oil, intragastric) came out at 3.53 mg/kg; in assay [1] (3 hours after castor oil, intragastric), 4.24 mg/kg; in assay [1] (4 hours after castor oil, intragastric), 5.4 mg/kg; in assay [1] (5 hours after castor oil, intragastric) it was 5.58 mg/kg; in assay [1] (6 hours after castor oil, intragastric) it was 5.79 mg/kg; in assay [1] (7 hours after castor oil, intragastric), 7.48 mg/kg. The compound also came in with an ED50 in assay [1] (8 hours after castor oil, intragastric) of 7.48 mg/kg. Besides, in assay [1] (rat castor oil test, intragastric), the “inhibition of gastrointestinal motility” value was “found to inhibit gastrointestinal motility”. Further, the Potency in assay [1] (2 hours after castor oil) is 0.06; in assay [1] (3 hours after castor oil), 0.11; in assay [1] (4 hours after castor oil), 0.16; in assay [1] (5 hours after castor oil), 0.24; in assay [1] (6 hours after castor oil) it was 0.29; in assay [1] (7 hours after castor oil), 0.25. Moreover, in assay [1] (8 hours after castor oil), the Potency is 0.26.

Values taken from patent US4069223A, “4-Aminomethyl-1-(3,3,3-triarylpropyl)-4-arylpiperidine and derivatives thereof” (G. D. Searle & Co., priority 1977, dated 1978).
